These compounds were tested against T1, human Edg-1 (S1P1) (Homo sapiens, UniProt P21453) (assay: S1P1 binding assay: inhibition of [33P]-S1P binding to membrane fraction of HEK-293 cells transferred with the human Edg-1 (S1P1) gene). Details: [33P]-S1P 0.1 nM, human Edg-1 (S1P1) HEK-293 membrane fraction, 1 h at 30° C.; read-out: IC50 (concentration at which binding in the absence of the test compound was inhibited by 50%).
T1 construct: expressed in transfected cells; host or cells: HEK-293
Procedure: The membrane fraction was obtained by treating the cells with a solubilizing buffer (1 mM Tris/HCl, pH 7.2) for 10 minutes on ice, centrifuging at 1000×g for 5 minutes to remove insoluble fractions, and then centrifuging at 40000×g for 30 minutes at 4° C. The resulting membrane fraction was dissolved in a binding buffer (20 mM Tris-HCl, pH 7.4, 100 mM NaCl, 15 mM NaF, 2 mM deoxypyridoxine, 4 mg/mL fatty acid-free BSA), and then [^33P]-S1P (manufactured by ARC, final concentration 0.1 nM) and a DMSO solution (final concentration of the compound 10^−5M, final concentration of DMSO 0.1%) of the test compound were added. Thereafter, the mixture was stirred and then treated for one hour at 30° C. Using a harvester, the membrane fraction was harvested onto unifilter-96 GF/C filter (manufactured by Perkin Elmer), washing was carried out four times with the binding buffer, and the filter was dried. Twenty five μL Microscint 0 (manufactured by Perkin Elmer) was added, and radioactivity was measured using Top Count NXT (manufactured by Packard) to calculate the amount (A) of [^33P]-S1P bound to the membrane fraction at the time when the compound was added.
The same procedure was carried out in the absence of the test compound, and the amount (B) of [^33P]-S1P bound was calculated. Further, the same procedure was carried out in the absence of the test compound by use of HEK-293 cells to which no Edg-1 (S1P1) gene was introduced, and the background amount (C) of [^33P]-S1P bound was calculated.
Inhibition rate (%)=[1−(A−C)/(B−C)]×100
Further, concentrations (IC50) at the time when binding in the absence of the test compound was inhibited by 50% were calculated. The membrane system binding assay was carried out in the presence of test compounds with various concentrations, and the Edg-1 (S1P1) binding inhibition rates were calculated using the equation above. Then, IC50 values were calculated using Origin (Lightstone Corp.), a software for data analysis.

T1 sequence (P21453 whole entry): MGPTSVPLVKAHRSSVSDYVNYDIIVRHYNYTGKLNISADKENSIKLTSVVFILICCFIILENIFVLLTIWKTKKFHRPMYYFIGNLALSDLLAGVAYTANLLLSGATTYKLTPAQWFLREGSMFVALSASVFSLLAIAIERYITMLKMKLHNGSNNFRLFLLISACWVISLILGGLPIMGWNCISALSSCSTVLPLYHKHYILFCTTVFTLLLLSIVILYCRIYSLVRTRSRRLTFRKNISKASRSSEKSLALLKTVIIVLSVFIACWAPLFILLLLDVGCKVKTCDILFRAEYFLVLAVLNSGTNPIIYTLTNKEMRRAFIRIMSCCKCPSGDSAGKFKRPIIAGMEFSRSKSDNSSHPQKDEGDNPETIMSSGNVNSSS

IC50 [nM] | SMILES
≤ 10 | CCn1c(Oc2ccc3cc[nH]c3c2)nnc1[C@@H](C)NS(=O)(=O)c1ccc2c(Cl)cccc2c1 [Compound 151]

Same assay, conditions: test compound 10 μM; inhibition of [33P]-S1P binding, membrane fraction

SMILES | inhibition at 10 µM [%]
CCn1c(Oc2ccc3cc[nH]c3c2)nnc1[C@@H](C)NS(=O)(=O)c1cnn(-c2ccccc2)c1C [Compound 468] | 56.2
CCn1c(Oc2ccc3cc[nH]c3c2)nnc1[C@@H](C)NS(=O)(=O)c1cc(Br)ccc1Br [Compound 428] | 81.4
CCn1c(Oc2ccc3cc[nH]c3c2)nnc1[C@@H](C)NS(=O)(=O)c1cc(C)ccc1F [Compound 451] | 76.8
CCn1c(Oc2ccc3cc[nH]c3c2)nnc1[C@@H](C)NS(=O)(=O)c1ccc(C(C)C)cc1 [Compound 404] | 60.2
CCn1c(Oc2ccc3cc[nH]c3c2)nnc1[C@@H](C)NS(=O)(=O)c1cc(C)oc1C(F)(F)F [Compound 460] | 53.2
CCn1c(Oc2ccc3cc[nH]c3c2)nnc1[C@@H](C)NS(=O)(=O)c1ccsc1 [Compound 466] | 51.1

Now from value to compound:

inhibition at 10 µM [%] | SMILES
74.5 | CCn1c(Oc2ccc3cc[nH]c3c2)nnc1[C@@H](C)NS(=O)(=O)c1ccc(OC)cc1OC [Compound 473]
77.8 | CCn1c(Oc2cccc(N3CCN(C)CC3)c2)nnc1[C@@H](C)NS(=O)(=O)c1cc(Cl)ccc1F [Compound 614]
59.9 | CCn1c(Oc2cccc(N3CCN(C)CC3)c2)nnc1[C@@H](C)NS(=O)(=O)c1cccc2nsnc12 [Compound 632]
105 | CCn1c(Oc2cccc(N3CCN(C)CC3)c2)nnc1[C@@H](C)NS(=O)(=O)c1ccc(C#N)cc1 [Compound 564]
51 | CCn1c(Oc2cccc(N3CCN(C)CC3)c2)nnc1[C@@H](C)NS(=O)(=O)c1cccc2nonc12 [Compound 634]
89.2 | CCn1c(Oc2cccc(N3CCN(C)CC3)c2)nnc1[C@@H](C)NS(=O)(=O)c1c(C)c(C)cc(C)c1C [Compound 549]
77.5 | CCn1c(Oc2cccc(N3CCN(C)CC3)c2)nnc1[C@@H](C)NS(=O)(=O)c1cc(C(F)(F)F)ccc1Cl [Compound 591]
97.1 | CCn1c(Oc2cccc(N3CCN(C)CC3)c2)nnc1[C@@H](C)NS(=O)(=O)c1ccc(-c2csnn2)s1 [Compound 538]
87.6 | CCn1c(Oc2cccc(N3CCN(C)CC3)c2)nnc1[C@@H](C)NS(=O)(=O)c1c(Cl)cc(C(F)(F)F)cc1Cl [Compound 579]
87.4 | CCc1ccc(OC)c(S(=O)(=O)N[C@H](C)c2nnc(Oc3ccc4cc[nH]c4c3)n2CC)c1 [Compound 482]
93 | CCn1c(Oc2cccc(N3CCN(C)CC3)c2)nnc1[C@@H](C)NS(=O)(=O)c1ccc(C(F)(F)F)cc1Cl [Compound 644]
109 | CCn1c(Oc2cccc(N3CCN(C)CC3)c2)nnc1[C@@H](C)NS(=O)(=O)c1cc(F)c(Cl)cc1F [Compound 583]
90 | CCn1c(Oc2cccc(N3CCN(C)CC3)c2)nnc1[C@@H](C)NS(=O)(=O)CC1CCCCC1 [Compound 627]
107 | CCn1c(Oc2cccc(N3CCN(C)CC3)c2)nnc1[C@@H](C)NS(=O)(=O)c1ccc(F)cc1 [Compound 516]
107 | CCn1c(Oc2cccc(N3CCN(C)CC3)c2)nnc1[C@@H](C)NS(=O)(=O)c1ccc(OC(F)F)cc1 [Compound 603]
64.1 | CCn1c(Oc2cccc(N3CCN(C)CC3)c2)nnc1[C@@H](C)NS(=O)(=O)c1ccccc1OC(F)(F)F [Compound 563]
104 | CCn1c(Oc2cccc(N3CCN(C)CC3)c2)nnc1[C@@H](C)NS(=O)(=O)c1cccc(Cl)c1Cl [Compound 550]
62.5 | CCn1c(Oc2ccc3cc[nH]c3c2)nnc1[C@@H](C)NS(=O)(=O)c1ccc(Br)c(C(F)(F)F)c1 [Compound 488]
55.3 | CCn1c(Oc2ccc3cc[nH]c3c2)nnc1[C@@H](C)NS(=O)(=O)c1cc(C)sc1C [Compound 472]
85.5 | CCn1c(Oc2cccc(N3CCN(C)CC3)c2)nnc1[C@@H](C)NS(=O)(=O)c1ccc(OC)cc1OC [Compound 642]

Same assay, conditions: test compound at 10 μM; inhibition of [33P]-S1P binding to the membrane fraction of HEK-293 cells expressing human Edg-1 (S1P1)

inhibition at 10 µM [%] | SMILES
73.6 | CCn1c(Oc2ccc(F)cc2)nnc1[C@@H](C)NS(=O)(=O)c1ccc(F)c(C#N)c1 [Compound 261]
92.3 | CCn1c(Oc2ccc3cc[nH]c3c2)nnc1[C@@H](C)NS(=O)(=O)c1ccc(C(C)=O)cc1 [Compound 327]
71.6 | CCn1c(Oc2ccc(F)cc2)nnc1[C@@H](C)NS(=O)(=O)c1ccc(F)cc1C [Compound 273]
79.6 | CCn1c(Oc2ccc(F)cc2)nnc1[C@@H](C)NS(=O)(=O)c1cc(C)ccc1F [Compound 279]
83.6 | CCn1c(Oc2ccc3cc[nH]c3c2)nnc1[C@@H](C)NS(=O)(=O)c1cc(Cl)cc(Cl)c1 [Compound 383]
68.4 | CCn1c(Oc2ccc(F)cc2)nnc1[C@@H](C)NS(=O)(=O)c1cc(Cl)ccc1Cl [Compound 168]
61.7 | CCn1c(Oc2ccc(F)cc2)nnc1[C@@H](C)NS(=O)(=O)c1cc(Br)cc(C(F)(F)F)c1 [Compound 319]
77.4 | CCn1c(Oc2ccc(F)cc2)nnc1[C@@H](C)NS(=O)(=O)c1ccc(C(F)(F)F)cc1Cl [Compound 303]
81.8 | CCn1c(Cc2ccc(F)cc2)nnc1[C@@H](C)NS(=O)(=O)c1csc2ccccc12 [Compound 324]
85.2 | CCn1c(Oc2ccc(F)cc2)nnc1[C@@H](C)NS(=O)(=O)c1cc(F)c(F)cc1F [Compound 256]
109 | CCn1c(Oc2ccc(F)cc2)nnc1[C@@H](C)NS(=O)(=O)c1ccc(Cl)cc1 [Compound 162]
88.3 | CCn1c(Cc2ccc(C)cc2)nnc1[C@@H](C)NS(=O)(=O)c1ccc(Cl)c(Cl)c1 [Compound 56, 3,4-Dichloro-N-[(R)-1-[4-ethyl-5(4-methylbenzyl)-4H-[1,2,4]triazol-3-yl]-ethyl]-benzenesulfonamide]
80.4 | CCn1c(Oc2ccc3cc[nH]c3c2)nnc1[C@@H](C)NS(=O)(=O)c1c(C)c(C)c(C)c(C)c1C [Compound 391]
70.8 | CCn1c(Oc2ccc(F)cc2)nnc1[C@@H](C)NS(=O)(=O)c1cc(F)ccc1C [Compound 219]
53.6 | CCn1c(Oc2ccc3cc[nH]c3c2)nnc1[C@@H](C)NS(=O)(=O)c1c(Cl)cccc1Cl [Compound 342]
71.6 | CCn1c(Oc2ccc3cc[nH]c3c2)nnc1[C@@H](C)NS(=O)(=O)c1c(C)c(C)cc(C)c1C [Compound 378]
103 | CCn1c(Oc2ccc(F)cc2)nnc1[C@@H](C)NS(=O)(=O)c1ccc(OC)cc1 [Compound 175, N-[(R)-1-[4-Ethyl-5-(4-fluorophenoxy)-4H-[1,2,4]triazol-3-yl]-ethyl]-4-methoxybenzenesulfonamide]
102 | CCn1c(Oc2ccc(F)cc2)nnc1[C@@H](C)NS(=O)(=O)c1cccc(Cl)c1C [Compound 214]
87.3 | CCn1c(Oc2ccc(F)cc2)nnc1[C@@H](C)NS(=O)(=O)c1cccc(Cl)c1F [Compound 280]
80.7 | CCn1c(Oc2ccc(F)cc2)nnc1[C@@H](C)NS(=O)(=O)c1ccc2c(c1)CN(C(=O)C(F)(F)F)CC2 [Compound 194]
81.6 | CCn1c(Oc2ccc3cc[nH]c3c2)nnc1[C@@H](C)NS(=O)(=O)c1ccc(C(C)(C)C)cc1 [Compound 330]
80.6 | CCn1c(Sc2ccc(C)cc2)nnc1[C@@H](C)NS(=O)(=O)c1ccc(Cl)c(Cl)c1 [Compound 55, 3,4-Dichloro-N-[(R)-1-(4-ethyl-5(4-methylbenzenesulfanyl)-4H-[1,2,4]triazol-3-yl)-ethyl]-benzenesulfonamide]
95.8 | CCn1c(Oc2ccc(F)cc2)nnc1[C@@H](C)NS(=O)(=O)c1ccc(F)c(F)c1 [Compound 241]
96.9 | CCn1c(Oc2ccc3cc[nH]c3c2)nnc1[C@@H](C)NS(=O)(=O)c1ccccc1C [Compound 361]
68.7 | CCn1c(Oc2ccc(F)cc2)nnc1[C@@H](C)NS(=O)(=O)c1ccc(C(C)C)cc1 [Compound 232]
98 | CCn1c(Oc2ccc3cc[nH]c3c2)nnc1[C@@H](C)NS(=O)(=O)c1ccc(F)c(Cl)c1 [Compound 385]
82.9 | CCn1c(Oc2ccc(F)cc2)nnc1[C@@H](C)NS(=O)(=O)c1ccc(Br)cc1C [Compound 235]
66.9 | CCn1c(Oc2ccc3cc[nH]c3c2)nnc1[C@@H](C)NS(=O)(=O)c1cc(C(F)(F)F)cc(C(F)(F)F)c1 [Compound 382]
